# According to patent US11572590B2, “Methods for evaluating tumor cell spheroids using 3D microfluidic cell culture device” (Dana-Farber Cancer Institute, Inc., priority 2017, dated 2023):
# Like-named read-outs stand apart in the source and are kept apart here.
# How the values were obtained:
# Assay in all cases: SelectScreen Kinase Profiling, single point inhibition and IC50 for off-target kinases
# Format in all cases: biochemical
# [1] = target: off-target kinases (Homo sapiens, UniProt P24941)
# [2] = target: off-target kinases (Homo sapiens, UniProt P49336); details: CDK8/cyclin C, LanthaScreen Binding
# Chain of off-target kinases (Homo sapiens, UniProt P49336) (P49336 whole entry): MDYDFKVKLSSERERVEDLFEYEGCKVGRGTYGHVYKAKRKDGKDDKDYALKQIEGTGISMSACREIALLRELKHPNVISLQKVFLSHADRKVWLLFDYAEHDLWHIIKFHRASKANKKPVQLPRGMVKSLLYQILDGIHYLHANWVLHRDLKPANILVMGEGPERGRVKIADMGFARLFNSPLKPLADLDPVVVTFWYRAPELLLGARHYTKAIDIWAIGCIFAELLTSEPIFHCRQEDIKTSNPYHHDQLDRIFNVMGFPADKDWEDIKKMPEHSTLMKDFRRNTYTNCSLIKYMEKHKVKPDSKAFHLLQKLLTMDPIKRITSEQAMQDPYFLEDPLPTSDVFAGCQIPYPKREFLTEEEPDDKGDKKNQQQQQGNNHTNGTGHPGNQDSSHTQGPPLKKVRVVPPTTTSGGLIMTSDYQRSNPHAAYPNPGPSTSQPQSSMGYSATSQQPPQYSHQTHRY
# [3] = target: off-target kinases (Homo sapiens, UniProt P49674)
# Chain of off-target kinases (Homo sapiens, UniProt P49674) (P49674 whole entry): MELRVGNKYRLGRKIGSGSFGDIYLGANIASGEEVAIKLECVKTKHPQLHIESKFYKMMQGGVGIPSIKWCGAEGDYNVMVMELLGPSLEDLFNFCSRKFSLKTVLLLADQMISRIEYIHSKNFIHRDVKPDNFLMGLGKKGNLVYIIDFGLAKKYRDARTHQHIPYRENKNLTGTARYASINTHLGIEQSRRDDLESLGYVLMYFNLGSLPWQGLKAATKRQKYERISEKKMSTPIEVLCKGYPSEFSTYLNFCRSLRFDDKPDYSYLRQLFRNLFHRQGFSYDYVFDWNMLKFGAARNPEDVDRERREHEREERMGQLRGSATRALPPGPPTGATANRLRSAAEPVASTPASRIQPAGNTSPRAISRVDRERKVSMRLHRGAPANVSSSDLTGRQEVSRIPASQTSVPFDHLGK
# [4] = target: T1, off-target kinases (Homo sapiens, UniProt Q7L7X3); details: TAOK1, LanthaScreen Binding
# T1 sequence (Q7L7X3 1-1001): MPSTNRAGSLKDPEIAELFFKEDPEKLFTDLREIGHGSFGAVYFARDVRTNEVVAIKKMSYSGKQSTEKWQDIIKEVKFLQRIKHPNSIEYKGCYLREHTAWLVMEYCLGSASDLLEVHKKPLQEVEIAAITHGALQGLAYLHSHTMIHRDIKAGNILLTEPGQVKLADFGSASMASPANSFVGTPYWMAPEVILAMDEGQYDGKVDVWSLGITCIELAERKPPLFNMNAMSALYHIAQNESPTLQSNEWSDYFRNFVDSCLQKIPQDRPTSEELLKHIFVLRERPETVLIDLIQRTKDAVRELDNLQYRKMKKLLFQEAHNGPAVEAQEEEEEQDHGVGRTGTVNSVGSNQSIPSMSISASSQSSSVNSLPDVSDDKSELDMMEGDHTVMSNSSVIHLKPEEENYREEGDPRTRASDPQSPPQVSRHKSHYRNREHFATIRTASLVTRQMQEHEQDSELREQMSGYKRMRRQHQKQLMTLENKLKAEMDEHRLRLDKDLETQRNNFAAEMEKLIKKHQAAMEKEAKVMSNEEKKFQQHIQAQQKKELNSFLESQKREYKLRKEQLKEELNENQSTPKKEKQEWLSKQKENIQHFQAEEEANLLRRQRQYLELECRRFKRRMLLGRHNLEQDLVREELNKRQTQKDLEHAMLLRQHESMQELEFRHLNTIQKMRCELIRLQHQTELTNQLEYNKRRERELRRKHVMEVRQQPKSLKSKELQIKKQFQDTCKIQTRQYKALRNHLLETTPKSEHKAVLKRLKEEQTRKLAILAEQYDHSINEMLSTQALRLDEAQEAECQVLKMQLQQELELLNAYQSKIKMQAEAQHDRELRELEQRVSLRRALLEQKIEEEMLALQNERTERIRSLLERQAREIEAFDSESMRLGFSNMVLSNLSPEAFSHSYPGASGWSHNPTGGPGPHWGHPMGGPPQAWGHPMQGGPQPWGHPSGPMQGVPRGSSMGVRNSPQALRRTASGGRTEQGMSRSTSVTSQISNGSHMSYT
# [5] = target: off-target kinases (Homo sapiens, UniProt Q8NEB9); details: PIK3C3 (hVPS34); Cmpd1 1000 μM; ATP Km app; Adapta
# Chain of off-target kinases (Homo sapiens, UniProt Q8NEB9) (Q8NEB9 whole entry): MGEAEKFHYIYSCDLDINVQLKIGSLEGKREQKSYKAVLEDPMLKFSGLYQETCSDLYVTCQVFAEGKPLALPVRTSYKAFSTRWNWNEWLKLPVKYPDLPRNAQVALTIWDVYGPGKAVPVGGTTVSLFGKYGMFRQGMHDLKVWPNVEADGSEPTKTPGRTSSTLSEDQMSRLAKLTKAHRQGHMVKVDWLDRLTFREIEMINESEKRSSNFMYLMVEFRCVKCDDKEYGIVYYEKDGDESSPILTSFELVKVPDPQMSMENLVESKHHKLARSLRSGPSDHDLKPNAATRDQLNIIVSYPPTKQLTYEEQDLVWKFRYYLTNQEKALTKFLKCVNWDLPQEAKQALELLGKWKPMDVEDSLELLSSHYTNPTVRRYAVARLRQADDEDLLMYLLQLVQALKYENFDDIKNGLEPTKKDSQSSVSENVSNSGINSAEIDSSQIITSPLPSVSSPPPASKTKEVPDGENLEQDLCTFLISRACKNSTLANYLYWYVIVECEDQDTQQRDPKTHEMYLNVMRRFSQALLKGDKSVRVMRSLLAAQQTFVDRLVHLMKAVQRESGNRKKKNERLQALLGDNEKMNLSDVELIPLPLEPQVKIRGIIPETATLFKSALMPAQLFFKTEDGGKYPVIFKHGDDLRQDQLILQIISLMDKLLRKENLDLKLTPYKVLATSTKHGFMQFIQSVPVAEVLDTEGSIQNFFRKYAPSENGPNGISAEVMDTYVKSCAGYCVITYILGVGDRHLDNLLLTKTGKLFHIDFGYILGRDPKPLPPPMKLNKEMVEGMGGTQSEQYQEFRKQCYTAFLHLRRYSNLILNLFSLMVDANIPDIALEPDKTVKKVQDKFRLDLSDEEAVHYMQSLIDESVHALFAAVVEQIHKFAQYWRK
# [6] = target: off-target kinases (Homo sapiens, UniProt Q9H2X6); details: HIPK2, ZLYTE, ATP Km app
# Chain of off-target kinases (Homo sapiens, UniProt Q9H2X6) (Q9H2X6 whole entry): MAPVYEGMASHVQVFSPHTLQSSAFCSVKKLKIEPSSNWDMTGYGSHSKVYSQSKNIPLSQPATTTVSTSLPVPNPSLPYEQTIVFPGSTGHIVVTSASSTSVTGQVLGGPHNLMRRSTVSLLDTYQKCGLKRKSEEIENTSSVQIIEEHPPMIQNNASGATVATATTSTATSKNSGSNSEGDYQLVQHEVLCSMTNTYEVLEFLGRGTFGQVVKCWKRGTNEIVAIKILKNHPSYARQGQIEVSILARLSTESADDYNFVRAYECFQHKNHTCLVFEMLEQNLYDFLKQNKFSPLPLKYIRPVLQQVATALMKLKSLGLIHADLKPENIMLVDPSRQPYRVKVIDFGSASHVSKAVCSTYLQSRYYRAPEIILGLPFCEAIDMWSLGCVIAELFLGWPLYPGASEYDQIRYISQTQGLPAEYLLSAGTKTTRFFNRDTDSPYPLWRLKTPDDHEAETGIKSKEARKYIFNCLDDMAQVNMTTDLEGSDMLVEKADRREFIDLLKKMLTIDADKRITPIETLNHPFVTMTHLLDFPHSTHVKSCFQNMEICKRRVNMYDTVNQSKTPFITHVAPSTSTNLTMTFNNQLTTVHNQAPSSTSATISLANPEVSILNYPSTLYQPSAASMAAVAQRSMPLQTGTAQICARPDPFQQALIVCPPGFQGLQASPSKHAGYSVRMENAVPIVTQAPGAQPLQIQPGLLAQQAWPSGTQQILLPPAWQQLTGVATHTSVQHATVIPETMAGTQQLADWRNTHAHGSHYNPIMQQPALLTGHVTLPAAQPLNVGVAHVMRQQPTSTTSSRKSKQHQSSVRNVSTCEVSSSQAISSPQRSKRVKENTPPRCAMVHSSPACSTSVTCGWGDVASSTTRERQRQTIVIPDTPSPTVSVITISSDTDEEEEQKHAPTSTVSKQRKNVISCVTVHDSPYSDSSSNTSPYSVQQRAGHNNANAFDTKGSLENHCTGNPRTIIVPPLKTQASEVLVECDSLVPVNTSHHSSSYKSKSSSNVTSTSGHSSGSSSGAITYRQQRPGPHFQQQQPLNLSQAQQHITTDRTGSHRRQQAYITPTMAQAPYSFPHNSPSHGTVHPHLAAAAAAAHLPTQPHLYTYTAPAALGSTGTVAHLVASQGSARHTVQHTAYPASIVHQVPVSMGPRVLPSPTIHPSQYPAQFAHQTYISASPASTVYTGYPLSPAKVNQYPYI
# [7] = target: off-target kinases (Homo sapiens, UniProt Q9UPE1); details: STK23 (MSSK1), ZLYTE, ATP Km app
# Chain of off-target kinases (Homo sapiens, UniProt Q9UPE1) (Q9UPE1 whole entry): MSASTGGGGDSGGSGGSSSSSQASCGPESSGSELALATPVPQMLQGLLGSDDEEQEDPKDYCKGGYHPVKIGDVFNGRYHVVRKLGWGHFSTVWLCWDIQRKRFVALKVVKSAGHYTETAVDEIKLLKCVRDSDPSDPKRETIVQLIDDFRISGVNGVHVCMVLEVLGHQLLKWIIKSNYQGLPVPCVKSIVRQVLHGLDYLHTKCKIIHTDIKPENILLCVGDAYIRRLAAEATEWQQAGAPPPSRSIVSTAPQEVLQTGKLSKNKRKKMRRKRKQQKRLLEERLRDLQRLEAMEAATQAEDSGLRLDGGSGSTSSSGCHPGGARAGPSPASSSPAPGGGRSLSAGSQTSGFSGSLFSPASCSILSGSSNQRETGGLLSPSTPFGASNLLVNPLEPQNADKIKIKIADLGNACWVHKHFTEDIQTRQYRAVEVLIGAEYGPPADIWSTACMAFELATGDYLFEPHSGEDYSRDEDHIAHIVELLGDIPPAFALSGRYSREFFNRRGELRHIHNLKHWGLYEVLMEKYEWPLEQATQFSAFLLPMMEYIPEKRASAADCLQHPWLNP
compound,measurement,setting,value
"N#Cc1cc(-c2ncnc(Nc3ccc(N4CCN(C5COC5)CC4)cc3)n2)ccc1OC1CCOCC1 [Compound 1, 5-(4-((4-(4-(oxetan-3-yl)piperazin-1-yl)phenyl)amino)-1,3,5-triazin-2-yl)-2-((tetrahydro-2H-pyran-4-yl)oxy)benzonitrile]",inhibition,"[1]; CDK2/cyclin A1, LanthaScreen Binding, read-out: % Inhibition 1",33%
same,inhibition,"[1]; CDK2/cyclin A1, LanthaScreen Binding, read-out: % Inhibition 2",39%
same,inhibition,"[1]; CDK2/cyclin A1, LanthaScreen Binding, read-out: % Inhibition Avg",36%
same,inhibition,"[1]; CDK2/cyclin A2, LanthaScreen Binding, read-out: % Inhibition 1",24%
same,inhibition,"[1]; CDK2/cyclin A2, LanthaScreen Binding, read-out: % Inhibition 2",29%
same,inhibition,"[1]; CDK2/cyclin A2, LanthaScreen Binding, read-out: % Inhibition Avg",26%
same,inhibition,"[1]; CDK2/cyclin A, ZLYTE, ATP Km app, read-out: % Inhibition 1",38%
same,inhibition,"[1]; CDK2/cyclin A, ZLYTE, ATP Km app, read-out: % Inhibition 2",36%
same,inhibition,"[1]; CDK2/cyclin A, ZLYTE, ATP Km app, read-out: % Inhibition Avg",37%
same,inhibition,"[1]; CDK2/cyclin E1, LanthaScreen Binding, read-out: % Inhibition 1",15%
same,inhibition,"[1]; CDK2/cyclin E1, LanthaScreen Binding, read-out: % Inhibition 2",17%
same,inhibition,"[1]; CDK2/cyclin E1, LanthaScreen Binding, read-out: % Inhibition Avg",16%
same,inhibition,"[1]; CDK2/cyclin O, LanthaScreen, read-out: % Inhibition 1",39%
same,inhibition,"[1]; CDK2/cyclin O, LanthaScreen, read-out: % Inhibition 2",42%
same,inhibition,"[1]; CDK2/cyclin O, LanthaScreen, read-out: % Inhibition Avg",41%
same,inhibition,[2]; read-out: % Inhibition 1,0%
same,inhibition,[2]; read-out: % Inhibition 2,3%
same,inhibition,[2]; read-out: % Inhibition Avg,1%
same,inhibition,"[3]; CSNK1E (CK1 epsilon), ZLYTE, ATP Km app, read-out: % Inhibition 2",4%
same,inhibition,"[3]; CSNK1E (CK1 epsilon), ZLYTE, ATP Km app, read-out: % Inhibition Avg",1%
same,inhibition,[3]; read-out: % Inhibition 1,-2%
same,inhibition,[4]; read-out: % Inhibition 1,45%
same,inhibition,[4]; read-out: % Inhibition 2,43%
same,inhibition,[4]; read-out: % Inhibition Avg,44%
same,% Inhibition 1,[5],−5%
same,% Inhibition 2,[5],−9%
same,% Inhibition Avg,[5],−7%
same,inhibition,[6]; read-out: % Inhibition 1,21%
same,inhibition,[6]; read-out: % Inhibition 2,19%
same,inhibition,[6]; read-out: % Inhibition Avg,20%
same,inhibition,[7]; read-out: % Inhibition 1,2%
same,inhibition,[7]; read-out: % Inhibition 2,1%
same,inhibition,[7]; read-out: % Inhibition Avg,2%
